Assay results published in US20140303092A1 (CHIMERIX, INC., priority 2011, published 2014).

Test: Study HDP-CDV-201: safety and tolerability (adverse events, laboratory abnormalities, discontinuations)
Type: in vivo, human (adult allogeneic HSCT recipients)
Experimental: Clinical Studies of HDP-CDV were performed and described in detail in the following Examples. For example, HDP-CDV-201 is a placebo-controlled, dose-escalating trial in HSCT CMV (R+) recipients, evaluating the ability of HDP-CDV to prevent or control CMV infection was carried out. Five cohorts were established in which participants or subjects received either placebo or the HDP-CDV orally, in doses ranging from 40 mg weekly (QW) to 200 mg twice weekly (BIW). Subjects who were post-HSCT were enrolled at the time of engraftment and randomized to HDP-CDV or placebo (3 to 1 ratio) and received blinded therapy until approximately 100 day post-transplantation. HDP-CDV doses were 40 mg QW, 100 mg QW, 200 mg QW, 200 mg BIW and 100 mg BIW. Escalation to the next dose was decided by the data monitoring committee after review of the safety data from the previous Cohort. Subjects who developed CMV disease or CMV infection requiring pre-emptive therapy with local standard of care were discontinued from blinded therapy and followed for 4 weeks. Subjects who completed treatment with blinded therapy were followed for 8 weeks post-therapy.
Data from Study HDP-CDV-201 also provided characterization of the safety and tolerability profile of HDP-CDV when administered for the prevention or control of CMV infection in high risk (R^+) post-HSCT adult subjects.
The Safety population (SAFETY) included all randomized subjects who took at least one dose of study treatment. This population was used to summarize safety outcomes based on the treatment actually received, in cases where a subject was treated contrary to the randomization schedule.
The safety and tolerability profile of HDP-CDV, including subject demographics and Baseline characteristics; the AE profile; and laboratory abnormalities of interest were analyzed in the cohorts followed in this investigation.
Subjects completing the treatment period received a full course of study medication; those completing the entire study attended visits through 8 weeks of follow up. Subjects who discontinued treatment may have done so for protocol specified reasons (e.g. development of clinically significant CMV infection requiring preemptive treatment with excluded anti-CMV medications) or for other reasons (e.g., withdrawal, adverse events, loss to follow-up). The disposition of subjects in Study HDP-CDV-201 during the double-blind, placebo-controlled treatment period (through Week 11) is listed by dosing Cohort in TABLE 23.
Adverse events were examined by severity to ensure that all safety signals were identified in this study population. Because of the frequency of events in HSCT recipients, particular attention was given to evaluation of Grade 3 […], 4 (severe), and 5 (fatal) adverse events.
Only those preferred terms for which at least one Grade 3 or higher event was experienced in any treatment group are listed. Cytomegalovirus-related AEs are excluded from this analysis.
HDP-CDV is a lipid conjugate of CDV. Because CDV is known to have adverse effects on renal function and bone marrow, decreased GFR and persistent neutropenia were identified as AEs of special interest. Key renal and hematological (TABLE 30) laboratory parameters were measured and listed below by Study HDP-CDV-201 treatment groups. TABLE 30 includes abnormal levels of serum creatinine, neutrophils, platelets, WBCs, and hemoglobin and includes data at Screening and during the treatment period.
A common metric for unit based dosing of medications is by weight (mg/kg). When the distribution of weights was examined for all subjects participating in the study, the median was 78 kg and the lower 25th percentile weight was approximately 65 kg, which translates to a cut-off of ˜3 mg/kg for a 200 mg total weekly dose. Based upon this approach, a cut-off of 3 mg/kg was used to assess the frequency of diarrhea and associated GI AEs reported for the subjects in Cohorts 3 or 4a (TABLE 40).

CCCCCCCCCCCCCCCCOCCCOP(=O)(O)COC(CO)Cn1ccc(N)nc1=O (stereo not drawn) [HDP-CDV]
32 (64.0%): TEAE Acute GVHD, Frequency (100 mg BIW)
3 (12.0%) Subject n (%): Discontinuation: Adverse event (40 mg QW, active treatment period through Week 11)
0: TEAE Pneumonia, Grade 5 (40 mg QW) | TEAE Pyrexia, Grade 3 (40 mg QW) | TEAE Pyrexia, Grade 4 (40 mg QW) | TEAE Pyrexia, Grade 5 (40 mg QW) | TEAE Renal Failure, Grade 2 (40 mg QW) | TEAE Renal Failure, Grade 4 (40 mg QW) | TEAE Renal Failure, Grade 5 (40 mg QW) | TEAE Staphylococcal Bacteremia, Frequency (40 mg QW) | TEAE Staphylococcal Bacteremia, Grade 2 (40 mg QW) | TEAE Staphylococcal Bacteremia, Grade 3 (40 mg QW) | TEAE Staphylococcal Bacteremia, Grade 4 (40 mg QW) | TEAE Staphylococcal Bacteremia, Grade 5 (40 mg QW) | TEAE Thrombocytopenia, Grade 5 (40 mg QW) | TEAE Vomiting, Grade 3 (40 mg QW) | TEAE Vomiting, Grade 4 (40 mg QW) | TEAE Vomiting, Grade 5 (40 mg QW) | TEAE ALT increased, Grade 4 (100 mg BIW) | TEAE ALT increased, Grade 5 (100 mg BIW) | TEAE AML, Recurrent, Grade 3 (100 mg BIW) | TEAE AST increased, Grade 4 (100 mg BIW) | TEAE AST increased, Grade 5 (100 mg BIW) | TEAE Abdominal pain, Grade 4 (100 mg BIW) | TEAE Abdominal pain, Grade 5 (100 mg BIW) | TEAE Arthralgias, Grade 4 (100 mg BIW) | TEAE Arthralgias, Grade 5 (100 mg BIW) | TEAE Back Pain, Grade 3 (100 mg BIW) | TEAE Back Pain, Grade 4 (100 mg BIW) | TEAE Back Pain, Grade 5 (100 mg BIW) | TEAE Decreased appetite, Grade 4 (100 mg BIW) | TEAE Decreased appetite, Grade 5 (100 mg BIW) | TEAE Diarrhea, Grade 4 (100 mg BIW) | TEAE Diarrhea, Grade 5 (100 mg BIW) | TEAE Fatigue, Grade 3 (100 mg BIW) | TEAE Fatigue, Grade 4 (100 mg BIW) | TEAE Fatigue, Grade 5 (100 mg BIW) | TEAE GGT Increased, Grade 4 (100 mg BIW) | TEAE GGT Increased, Grade 5 (100 mg BIW) | TEAE Generalized oedema, Grade 3 (100 mg BIW) | TEAE Generalized oedema, Grade 4 (100 mg BIW) | TEAE Generalized oedema, Grade 5 (100 mg BIW) | TEAE Hyperbilirubinaemia, Grade 3 (100 mg BIW) | TEAE Hyperbilirubinaemia, Grade 4 (100 mg BIW) | TEAE Hyperbilirubinaemia, Grade 5 (100 mg BIW) | TEAE Hyperglycaemia, Grade 5 (100 mg BIW) | TEAE Hyperkalemia, Grade 3 (100 mg BIW) | TEAE Hyperkalemia, Grade 4 (100 mg BIW) | TEAE Hyperkalemia, Grade 5 (100 mg BIW) | TEAE Hypocalcaemia, Grade 4 (100 mg BIW) | TEAE Hypocalcaemia, Grade 5 (100 mg BIW)
1 (4.0%) Subject n (%): Discontinuation: Death (40 mg QW, active treatment period)
1 (2.0%): TEAE ALT increased, Grade 2 (100 mg BIW) | TEAE AML, Recurrent, Grade 2 (100 mg BIW) | TEAE AML, Recurrent, Grade 4 (100 mg BIW) | TEAE AML, Recurrent, Grade 5 (100 mg BIW) | TEAE AST increased, Grade 2 (100 mg BIW) | TEAE Abdominal pain, Grade 2 (100 mg BIW) | TEAE Abdominal pain, Grade 3 (100 mg BIW) | TEAE Arthralgias, Grade 2 (100 mg BIW) | TEAE Arthralgias, Grade 3 (100 mg BIW) | TEAE GGT Increased, Grade 2 (100 mg BIW) | TEAE Generalized oedema, Frequency (100 mg BIW) | TEAE Generalized oedema, Grade 2 (100 mg BIW) | TEAE Hyperbilirubinaemia, Grade 2 (100 mg BIW) | TEAE Hyperglycaemia, Grade 4 (100 mg BIW) | TEAE Hypocalcaemia, Grade 2 (100 mg BIW) | TEAE Hypocalcaemia, Grade 3 (100 mg BIW)
one: subjects discontinued due to acute renal failure (40 mg QW)
2 (8.0%): TEAE Vomiting, Frequency (40 mg QW)
12 (24.0%): TEAE Acute GVHD, Grade 3 (100 mg BIW)
6 (12.0%): TEAE Diarrhea, Grade 2 (100 mg BIW)
3 (6.0%): TEAE AML, Recurrent, Frequency (100 mg BIW) | TEAE AST increased, Grade 3 (100 mg BIW) | TEAE Arthralgias, Frequency (100 mg BIW) | TEAE Back Pain, Grade 2 (100 mg BIW) | TEAE Decreased appetite, Grade 3 (100 mg BIW) | TEAE GGT Increased, Grade 3 (100 mg BIW) | TEAE Hyperbilirubinaemia, Frequency (100 mg BIW) | TEAE Hyperkalemia, Frequency (100 mg BIW)
4 (8.0%): TEAE ALT increased, Grade 3 (100 mg BIW) | TEAE Back Pain, Frequency (100 mg BIW) | TEAE GGT Increased, Frequency (100 mg BIW) | TEAE Hyperglycaemia, Grade 2 (100 mg BIW)
9 (18.0%): TEAE ALT increased, Frequency (100 mg BIW) | TEAE Decreased appetite, Frequency (100 mg BIW) | TEAE Diarrhea, Grade 3 (100 mg BIW) | TEAE Fatigue, Frequency (100 mg BIW) | TEAE Hyperglycaemia, Frequency (100 mg BIW)
2 (4.0%): TEAE Fatigue, Grade 2 (100 mg BIW) | TEAE Hyperglycaemia, Grade 3 (100 mg BIW) | TEAE Hyperkalemia, Grade 2 (100 mg BIW) | TEAE Hypocalcaemia, Frequency (100 mg BIW) | TEAE Hypokalaemia, Grade 2 (100 mg BIW)
11 (22.0%): TEAE Acute GVHD, Grade 2 (100 mg BIW)
13 (26.0%): TEAE Abdominal pain, Frequency (100 mg BIW)
5 (10.0%): TEAE AST increased, Frequency (100 mg BIW) | TEAE Acute GVHD, Grade 4 (100 mg BIW)
8 (16.0%): TEAE Hypokalaemia, Frequency (100 mg BIW)
26 (52.0%): TEAE Diarrhea, Frequency (100 mg BIW)
3 (12.0%): TEAE Thrombocytopenia, Frequency (40 mg QW) | Subjects Reporting Diarrhea as an AE (40 mg QW, n = 25)
1 (4.0%): TEAE Pneumonia, Grade 4 (40 mg QW) | TEAE Pyrexia, Frequency (40 mg QW) | TEAE Pyrexia, Grade 2 (40 mg QW) | TEAE Renal Failure, Frequency (40 mg QW) | TEAE Renal Failure, Grade 3 (40 mg QW) | TEAE Thrombocytopenia, Grade 2 (40 mg QW) | TEAE Thrombocytopenia, Grade 3 (40 mg QW) | TEAE Thrombocytopenia, Grade 4 (40 mg QW) | TEAE Vomiting, Grade 2 (40 mg QW)
